Test results reported in patent US11022604B2, “Dock derived compound against laminin receptor (37 LR) and uses thereof” (Purdue Research Foundation, priority 2017, dated 2021).

Test system: c-MYC binding site luciferase reporter in PC-3 cells
Assay: c-MYC binding site luciferase reporter assay
Type: cell-based
Conditions: 24 hours
Description: FIG. 9. Luciferase promoter Assay in PC-3 cells. PC-3 cells were treated with 1, 10, 50 μM C3 or DMSO control for 24 hours after a 24 transfection with Myc-Luc and B-Gal plasmid to normalize for transfection efficiency (n=6, mean±SEM). Relative light units calculated by normalizing Myc-Luc signal to B-gal signal. A one-way ANOVA was used for statistical analysis (P<0.05). The linear trend was also significant (pose test for linear trend, p, 0.05).
Wound Healing Assay. PC-3 cells were seeded in 6 well plates at 3×10^5 cells per well in complete media until the cells reached confluency. Three horizontal and three vertical scratches were made in the confluent monolayers using a standard 200 μL pipette tip and cellular debris were removed by washing with 1×DPBS three times. 1×RPMI-1640 supplemented with C3 or DMSO was added and cells were incubated for 48 hours as described previously. […] Images were uploaded and analyzed for scratch geometry using the tscratch program (96). First, global thresholding was performed, then individual images were manually inspected for single image threshold adjustment and scratch geometries were quantified. […] The samples were analyzed using the Dionex UltiMate 3000 RSLC Nano System coupled to the Q Exactive™ HF Hybrid Quadrupole-Orbitrap MS (Thermo Scientific). […]

Structure (SMILES): O=C(c1cc(F)cc2c1OCOC2)N1CCN(C2c3ccccc3-c3ccccc32)CC1 [Compound C3, [4-(9h-fluoren-9-yl)piperazino](6-fluoro-4h-1,3-benzodioxin-8-yl)methanone]
- reduction of c-myc binding activity (luciferase reporter) (PC-3, 50 μM): 36%
- effect on c-myc luciferase reporter activity (PC-3, 1 and 10 μM): no significant effect
